In PubChem BioAssay (NCI):
Values joined by “and” are separate entries in the source; they are usually repeats but may differ in a detail not shown here. Identical values can stand only once.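 Briefly, cells in 96-well plates were exposed to five compound concentrations for 48 h, and endpoints were estimated by linear interpolation. Abbreviation: GI50, concentration required for 50% inhibition of growth. TGI: total growth inhibition.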

Tested on: HS 578T breast
Experiment: NCI anticancer screen, dose series, 48 h

Structure (SMILES)	TGI	GI50
CCCCc1c(OC)cc(O)c2c1C(=O)c1[nH]c(C(=O)O)c(O)c(=O)c1C2=O	8.14 µM	
CCN1CCN(c2ccc(Nc3cc(N(C)C(=O)Nc4c(Cl)c(OC)cc(OC)c4Cl)ncn3)cc2)CC1	9.2 µM	1.34 µM
CC(C)c1ccc(Nc2ccc3c(OCCCN4CCN(C)CC4)cccc3n2)cc1	40.3 µM	16.9 µM
COc1ccc2c(c1)C(C)Cc1c(Cl)ncnc1N2C (centres undefined)	38.1 µM	0.533 µM
COCCOc1cc(F)c2c(Nc3ccc(NC(=O)Cn4cc(C(C)C)nn4)cc3)ncnc2c1	> 100 µM	16.5 µM
C#Cc1cccc(Nc2ncnc3cc(OC)c(OCCCCCCC(=O)NO)cc23)c1	1.04 µM	0.086 µM
Cc1nnc(S(=O)(=O)c2ccc(N=Nc3c(N)nc(N)nc3N)cc2)s1	> 100 µM	
O=c1n(CC2CO2)c(=O)n(CC2CO2)c(=O)n1CC1CO1 (centres undefined)	188 µM and > 100 µM	21.6 µM
Cc1ccc(C(SCC(N)C(=O)O)(c2ccccc2)c2ccc(C)cc2)cc1 (centres undefined)	2.17 µM	0.0485 µM
COc1cc(Nc2cn[nH]c2-c2ccc(Cl)cc2)cc(OC)c1OC	63.1 µM	3.88 µM
O=C(c1ccccc1)c1cc(Cl)ccc1OCCCCN1CCN(CCCCOc2ccc(Cl)cc2C(=O)c2ccccc2)CC1	4.43 µM	2.19 µM
CNCCNc1c2c(c(NCCNC)c3c(CN(C)C)c[nH]c13)C(=O)c1ccccc1C2=O	7.92 µM	1.7 µM
O=C1NC(=Nc2ccccc2)S/C1=C\c1ccc2ncccc2c1	> 25 µM	> 11.8 µM
C/C1=C\CC[C@@]2(C)O[C@@H]2[C@H]2OC(=O)[C@@H](CN(C)C)[C@@H]2CC1	> 100 µM	22.7 µM
Oc1ccc(Cl)cc1Cc1cc(Cl)cc(Cl)c1O	8.97 µM	2.61 µM
C=C(C=O)C1CCC2(C(=O)O)CCC3(C)C(CCC4C5(C)CCC(O)C(C)(C)C5CCC43C)C12 (centres undefined)	> 100 µM	10.1 µM
COc1ccc(N2C(=O)C(c3ccccc3)(c3ccccc3)C23C(=O)N(C)c2ccccc23)cc1 (centres undefined)	> 100 µM	> 100 µM
CC(C)=C[C@@H]1C[C@H](C)[C@H]2CC[C@H](C)C3=C2[C@](O)(OC3=O)[C@]1(C)O	> 100 µM	> 100 µM
C/C(=C\CCc1ccoc1)CC/C=C(\C)CCCC1=CC(=O)OC1	36 µM	3.26 µM
O=c1c2ccccc2[se]n1-c1cccnc1	42.1 µM	

Tested on: LOX IMVI melanoma
Experiment: NCI anticancer screen, dose series, 48 h

Structure (SMILES)	TGI	GI50
CCCCc1c(OC)cc(O)c2c1C(=O)c1[nH]c(C(=O)O)c(O)c(=O)c1C2=O	> 100 µM	
CCN1CCN(c2ccc(Nc3cc(N(C)C(=O)Nc4c(Cl)c(OC)cc(OC)c4Cl)ncn3)cc2)CC1	2.91 µM	1.48 µM
CC(C)c1ccc(Nc2ccc3c(OCCCN4CCN(C)CC4)cccc3n2)cc1	3.54 µM	1.86 µM
COc1ccc2c(c1)C(C)Cc1c(Cl)ncnc1N2C (centres undefined)	0.517 µM	0.218 µM
COCCOc1cc(F)c2c(Nc3ccc(NC(=O)Cn4cc(C(C)C)nn4)cc3)ncnc2c1	> 100 µM	> 100 µM
C#Cc1cccc(Nc2ncnc3cc(OC)c(OCCCCCCC(=O)NO)cc23)c1	1.81 µM	0.195 µM
Cc1nnc(S(=O)(=O)c2ccc(N=Nc3c(N)nc(N)nc3N)cc2)s1	> 100 µM	
O=c1n(CC2CO2)c(=O)n(CC2CO2)c(=O)n1CC1CO1 (centres undefined)	47.5 µM and 102 µM and > 100 µM	12.3 µM and 6.12 µM
Cc1ccc(C(SCC(N)C(=O)O)(c2ccccc2)c2ccc(C)cc2)cc1 (centres undefined)	21.5 µM	0.602 µM
COc1cc(Nc2cn[nH]c2-c2ccc(Cl)cc2)cc(OC)c1OC	20.7 µM	5.62 µM
O=C(c1ccccc1)c1cc(Cl)ccc1OCCCCN1CCN(CCCCOc2ccc(Cl)cc2C(=O)c2ccccc2)CC1	3.21 µM	1.73 µM
CNCCNc1c2c(c(NCCNC)c3c(CN(C)C)c[nH]c13)C(=O)c1ccccc1C2=O	6.04 µM	2.35 µM
O=C1NC(=Nc2ccccc2)S/C1=C\c1ccc2ncccc2c1	> 25 µM	> 25 µM
C/C1=C\CC[C@@]2(C)O[C@@H]2[C@H]2OC(=O)[C@@H](CN(C)C)[C@@H]2CC1	29.9 µM	10.2 µM
Oc1ccc(Cl)cc1Cc1cc(Cl)cc(Cl)c1O	19.2 µM	4.83 µM
C=C(C=O)C1CCC2(C(=O)O)CCC3(C)C(CCC4C5(C)CCC(O)C(C)(C)C5CCC43C)C12 (centres undefined)	3.11 µM	1.57 µM
COc1ccc(N2C(=O)C(c3ccccc3)(c3ccccc3)C23C(=O)N(C)c2ccccc23)cc1 (centres undefined)	> 100 µM	> 100 µM
CC(C)=C[C@@H]1C[C@H](C)[C@H]2CC[C@H](C)C3=C2[C@](O)(OC3=O)[C@]1(C)O	> 100 µM	> 100 µM
C/C(=C\CCc1ccoc1)CC/C=C(\C)CCCC1=CC(=O)OC1	17.2 µM	4.84 µM
O=c1c2ccccc2[se]n1-c1cccnc1	56.8 µM	

Tested on: MOLT-4 leukemia
Experiment: NCI anticancer screen, dose series, 48 h

Structure (SMILES)	TGI	GI50
CCCCc1c(OC)cc(O)c2c1C(=O)c1[nH]c(C(=O)O)c(O)c(=O)c1C2=O	> 100 µM	
CCN1CCN(c2ccc(Nc3cc(N(C)C(=O)Nc4c(Cl)c(OC)cc(OC)c4Cl)ncn3)cc2)CC1	5.8 µM	1.87 µM
CC(C)c1ccc(Nc2ccc3c(OCCCN4CCN(C)CC4)cccc3n2)cc1	8.2 µM	2.92 µM
COc1ccc2c(c1)C(C)Cc1c(Cl)ncnc1N2C (centres undefined)	> 22.6 µM	1.17 µM
COCCOc1cc(F)c2c(Nc3ccc(NC(=O)Cn4cc(C(C)C)nn4)cc3)ncnc2c1	> 100 µM	> 100 µM
C#Cc1cccc(Nc2ncnc3cc(OC)c(OCCCCCCC(=O)NO)cc23)c1	1.93 µM	0.0864 µM
Cc1nnc(S(=O)(=O)c2ccc(N=Nc3c(N)nc(N)nc3N)cc2)s1	> 100 µM	
O=c1n(CC2CO2)c(=O)n(CC2CO2)c(=O)n1CC1CO1 (centres undefined)	210 µM and > 100 µM	5.09 µM and 2.95 µM
Cc1ccc(C(SCC(N)C(=O)O)(c2ccccc2)c2ccc(C)cc2)cc1 (centres undefined)	> 48.2 µM	2.7 µM
COc1cc(Nc2cn[nH]c2-c2ccc(Cl)cc2)cc(OC)c1OC	> 80.2 µM	3.65 µM
O=C(c1ccccc1)c1cc(Cl)ccc1OCCCCN1CCN(CCCCOc2ccc(Cl)cc2C(=O)c2ccccc2)CC1	7.5 µM	3.3 µM
CNCCNc1c2c(c(NCCNC)c3c(CN(C)C)c[nH]c13)C(=O)c1ccccc1C2=O		0.434 µM
O=C1NC(=Nc2ccccc2)S/C1=C\c1ccc2ncccc2c1	> 25 µM	> 25 µM
C/C1=C\CC[C@@]2(C)O[C@@H]2[C@H]2OC(=O)[C@@H](CN(C)C)[C@@H]2CC1	9.82 µM	2.89 µM
Oc1ccc(Cl)cc1Cc1cc(Cl)cc(Cl)c1O	32.1 µM	5.52 µM
C=C(C=O)C1CCC2(C(=O)O)CCC3(C)C(CCC4C5(C)CCC(O)C(C)(C)C5CCC43C)C12 (centres undefined)	> 100 µM	3.79 µM
COc1ccc(N2C(=O)C(c3ccccc3)(c3ccccc3)C23C(=O)N(C)c2ccccc23)cc1 (centres undefined)	> 100 µM	> 100 µM
CC(C)=C[C@@H]1C[C@H](C)[C@H]2CC[C@H](C)C3=C2[C@](O)(OC3=O)[C@]1(C)O	> 100 µM	> 100 µM
C/C(=C\CCc1ccoc1)CC/C=C(\C)CCCC1=CC(=O)OC1	15.4 µM	3.94 µM
O=c1c2ccccc2[se]n1-c1cccnc1	> 100 µM	

Tested on: NCI-H522 lung
Experiment: NCI anticancer screen, dose series, 48 h

Structure (SMILES)	TGI	GI50
CCCCc1c(OC)cc(O)c2c1C(=O)c1[nH]c(C(=O)O)c(O)c(=O)c1C2=O	9.94 µM	
CCN1CCN(c2ccc(Nc3cc(N(C)C(=O)Nc4c(Cl)c(OC)cc(OC)c4Cl)ncn3)cc2)CC1	10.9 µM	5.21 µM
CC(C)c1ccc(Nc2ccc3c(OCCCN4CCN(C)CC4)cccc3n2)cc1	39.7 µM	19.9 µM
COc1ccc2c(c1)C(C)Cc1c(Cl)ncnc1N2C (centres undefined)	4.02 µM	1.41 µM
COCCOc1cc(F)c2c(Nc3ccc(NC(=O)Cn4cc(C(C)C)nn4)cc3)ncnc2c1	> 100 µM	35.5 µM
C#Cc1cccc(Nc2ncnc3cc(OC)c(OCCCCCCC(=O)NO)cc23)c1	0.43 µM	0.0305 µM
Cc1nnc(S(=O)(=O)c2ccc(N=Nc3c(N)nc(N)nc3N)cc2)s1	> 100 µM	
O=c1n(CC2CO2)c(=O)n(CC2CO2)c(=O)n1CC1CO1 (centres undefined)	28 µM and 45.8 µM and 22.9 µM	11.2 µM and 3.9 µM
Cc1ccc(C(SCC(N)C(=O)O)(c2ccccc2)c2ccc(C)cc2)cc1 (centres undefined)	2.58 µM	0.132 µM
COc1cc(Nc2cn[nH]c2-c2ccc(Cl)cc2)cc(OC)c1OC	37.5 µM	6.81 µM
O=C(c1ccccc1)c1cc(Cl)ccc1OCCCCN1CCN(CCCCOc2ccc(Cl)cc2C(=O)c2ccccc2)CC1	3.83 µM	2.09 µM
CNCCNc1c2c(c(NCCNC)c3c(CN(C)C)c[nH]c13)C(=O)c1ccccc1C2=O	3.59 µM	0.514 µM
O=C1NC(=Nc2ccccc2)S/C1=C\c1ccc2ncccc2c1	> 25 µM	> 12.3 µM
C/C1=C\CC[C@@]2(C)O[C@@H]2[C@H]2OC(=O)[C@@H](CN(C)C)[C@@H]2CC1	7.06 µM	2.65 µM
Oc1ccc(Cl)cc1Cc1cc(Cl)cc(Cl)c1O	13.2 µM	3.43 µM
C=C(C=O)C1CCC2(C(=O)O)CCC3(C)C(CCC4C5(C)CCC(O)C(C)(C)C5CCC43C)C12 (centres undefined)	5 µM	1.96 µM
COc1ccc(N2C(=O)C(c3ccccc3)(c3ccccc3)C23C(=O)N(C)c2ccccc23)cc1 (centres undefined)	> 100 µM	> 100 µM
CC(C)=C[C@@H]1C[C@H](C)[C@H]2CC[C@H](C)C3=C2[C@](O)(OC3=O)[C@]1(C)O	> 100 µM	> 100 µM
C/C(=C\CCc1ccoc1)CC/C=C(\C)CCCC1=CC(=O)OC1	22.2 µM	5.45 µM
O=c1c2ccccc2[se]n1-c1cccnc1	55.4 µM	

Tested on: NCI/ADR-RES ovarian
Experiment: NCI anticancer screen, dose series, 48 h

Structure (SMILES)	TGI	GI50
CCCCc1c(OC)cc(O)c2c1C(=O)c1[nH]c(C(=O)O)c(O)c(=O)c1C2=O	93.7 µM	
CCN1CCN(c2ccc(Nc3cc(N(C)C(=O)Nc4c(Cl)c(OC)cc(OC)c4Cl)ncn3)cc2)CC1	> 64.5 µM	3.7 µM
CC(C)c1ccc(Nc2ccc3c(OCCCN4CCN(C)CC4)cccc3n2)cc1	32.9 µM	15.9 µM
COc1ccc2c(c1)C(C)Cc1c(Cl)ncnc1N2C (centres undefined)	11.2 µM	0.388 µM
COCCOc1cc(F)c2c(Nc3ccc(NC(=O)Cn4cc(C(C)C)nn4)cc3)ncnc2c1	> 100 µM	> 100 µM
C#Cc1cccc(Nc2ncnc3cc(OC)c(OCCCCCCC(=O)NO)cc23)c1	6.91 µM	0.917 µM
Cc1nnc(S(=O)(=O)c2ccc(N=Nc3c(N)nc(N)nc3N)cc2)s1	> 100 µM	
O=c1n(CC2CO2)c(=O)n(CC2CO2)c(=O)n1CC1CO1 (centres undefined)	237 µM and > 100 µM	16.3 µM and 11.7 µM
Cc1ccc(C(SCC(N)C(=O)O)(c2ccccc2)c2ccc(C)cc2)cc1 (centres undefined)	11.6 µM	1.14 µM
COc1cc(Nc2cn[nH]c2-c2ccc(Cl)cc2)cc(OC)c1OC	> 36.8 µM	4.42 µM
O=C(c1ccccc1)c1cc(Cl)ccc1OCCCCN1CCN(CCCCOc2ccc(Cl)cc2C(=O)c2ccccc2)CC1	12 µM	2.93 µM
CNCCNc1c2c(c(NCCNC)c3c(CN(C)C)c[nH]c13)C(=O)c1ccccc1C2=O	40.2 µM	12.7 µM
O=C1NC(=Nc2ccccc2)S/C1=C\c1ccc2ncccc2c1	> 25 µM	> 6.88 µM
C/C1=C\CC[C@@]2(C)O[C@@H]2[C@H]2OC(=O)[C@@H](CN(C)C)[C@@H]2CC1	59.9 µM	14.7 µM
Oc1ccc(Cl)cc1Cc1cc(Cl)cc(Cl)c1O	10 µM	3.29 µM
C=C(C=O)C1CCC2(C(=O)O)CCC3(C)C(CCC4C5(C)CCC(O)C(C)(C)C5CCC43C)C12 (centres undefined)	5.57 µM	1.79 µM
COc1ccc(N2C(=O)C(c3ccccc3)(c3ccccc3)C23C(=O)N(C)c2ccccc23)cc1 (centres undefined)	> 100 µM	> 100 µM
CC(C)=C[C@@H]1C[C@H](C)[C@H]2CC[C@H](C)C3=C2[C@](O)(OC3=O)[C@]1(C)O	> 100 µM	> 100 µM
C/C(=C\CCc1ccoc1)CC/C=C(\C)CCCC1=CC(=O)OC1	31 µM	5.42 µM
O=c1c2ccccc2[se]n1-c1cccnc1	> 100 µM	
